Measurements published in patent publication US20250188083A1, “Modulators of Histone Acetyltransferase 1 and Methods of Treatment Thereof” (The Board of Trustees of the Leland Stanford Junior …, priority 2021, published 2025).
“And” between values parts separate entries of the source, which are not always exact repeats. Equal values may be shown once. Values belong to the compound of their own block, whether it stands above or below them.

Experiments:
[1] = molecular target: HAT1/Rbap46 enzyme complex (Homo sapiens, UniProt O14929); test: HAT1 acetylation (acetyl-click) assay with 4-pentynoyl-CoA; format: biochemical; details: for HAT1 inhibitory activity of flavonoids in dose-response: dose-response curves, FIG. 13; for HAT1 inhibitory activity in library screens (rank, active or inactive): single-dose screening; for IC50: dose-response, 4-pentynoyl-CoA co-factor, read-out: IC50 for HAT1 enzymatic inhibition; for inhibition of HAT1/Rbap46 by bi-substrate inhibitors: 10 μM
Chain of HAT1/Rbap46 enzyme complex (Q16576 whole entry partner, one chain of several): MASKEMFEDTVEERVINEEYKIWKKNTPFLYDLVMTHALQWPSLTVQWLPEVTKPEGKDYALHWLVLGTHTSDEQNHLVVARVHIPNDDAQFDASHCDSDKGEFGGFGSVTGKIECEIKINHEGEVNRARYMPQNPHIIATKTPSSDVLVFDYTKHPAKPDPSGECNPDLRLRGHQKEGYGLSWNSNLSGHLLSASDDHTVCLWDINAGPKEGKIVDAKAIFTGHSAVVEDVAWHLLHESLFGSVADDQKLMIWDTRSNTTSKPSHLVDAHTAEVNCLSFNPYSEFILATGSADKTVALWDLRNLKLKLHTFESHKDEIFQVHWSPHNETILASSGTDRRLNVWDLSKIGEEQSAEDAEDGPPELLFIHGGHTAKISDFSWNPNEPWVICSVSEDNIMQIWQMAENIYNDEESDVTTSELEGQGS
Protocol: FIG. 6 provides a schematic of a histone acetyltransferase 1 (HAT1) acetylation assay in accordance with various embodiments. HAT1/Rbap46 purified enzyme complex is incubated with 4-pentynoyl-CoA and histone H4 N-terminal biotinylated peptide in the presence or absence of test compounds. Then reaction products are bound to neutravidin 96-well plate, washed, functionalized by copper(I)-catalyzed cycloaddition click chemistry with biotin-azide. Then, streptavidin-HRP is bound and detected by amplex red fluorescence reaction.
Percent inhibition was calculated according the following formula: […]

CBP = molecular target: T1, CBP (Homo sapiens, UniProt Q92793); test: Other acetyltransferase assay (3H-Acetyl-CoA, Creative Biomart); format: biochemical; details: 10-point dose curve from 100 μM
T1 construct: Creative Biomart (assay service)
Protocol: (§1) Acetylation assays on 7 targets (CBP, GCN5, KAT5, MYST2/KAT7, MYST4/KAT6b, p300, pCAF) was performed by Creative Biomart. […] Reaction buffer was 50 mM Tris-HCL, 0.1 mM EDTA, 250 mM NaCl, 1 mM DTT, 1% DMSO, pH 8.0, using 3 μM 3H-Acetyl-CoA, reaction time of 1 hour at 30 degrees Celsius, with substrate conversion rate between 5-20%. Enzymes were diluted in reaction buffer, followed by addition of compound with Acoustic Technology in nanoliter range, incubated at room temperature for 20 minutes, then 3H-Acetyl-CoA was added. Reaction was incubated at 30 minutes at 30 degrees Celsius, then transferred to filter paper for detection.

MYST2/KAT7 = molecular target: T2, MYST2/KAT7 (Homo sapiens, UniProt O95251); test: as above; format: biochemical; details: 10-point dose curve from 100 μM
T2 construct: Creative Biomart (assay service)
T2 sequence (O95251 whole entry): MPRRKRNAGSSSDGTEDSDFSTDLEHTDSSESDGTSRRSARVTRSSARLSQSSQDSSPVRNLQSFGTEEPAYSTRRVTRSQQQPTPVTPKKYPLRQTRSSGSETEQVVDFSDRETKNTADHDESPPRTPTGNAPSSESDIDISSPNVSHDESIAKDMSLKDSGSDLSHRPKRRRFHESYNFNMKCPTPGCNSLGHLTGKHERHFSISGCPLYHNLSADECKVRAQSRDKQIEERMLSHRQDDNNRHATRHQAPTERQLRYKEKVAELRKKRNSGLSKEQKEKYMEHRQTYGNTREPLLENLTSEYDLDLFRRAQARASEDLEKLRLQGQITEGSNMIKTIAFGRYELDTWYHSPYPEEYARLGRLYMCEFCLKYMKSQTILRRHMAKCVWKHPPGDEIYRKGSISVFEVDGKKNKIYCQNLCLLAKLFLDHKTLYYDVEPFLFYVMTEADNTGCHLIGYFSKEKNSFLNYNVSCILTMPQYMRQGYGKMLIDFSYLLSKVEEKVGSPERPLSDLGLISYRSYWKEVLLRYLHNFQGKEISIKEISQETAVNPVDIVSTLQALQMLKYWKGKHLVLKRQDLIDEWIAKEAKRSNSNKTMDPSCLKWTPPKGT
Protocol: as §1

PCAF = molecular target: T3, PCAF (Homo sapiens, UniProt Q92831); test: as above; format: biochemical; details: 10-point dose curve from 100 μM
T3 construct: Creative Biomart (assay service)
T3 sequence (Q92831 whole entry): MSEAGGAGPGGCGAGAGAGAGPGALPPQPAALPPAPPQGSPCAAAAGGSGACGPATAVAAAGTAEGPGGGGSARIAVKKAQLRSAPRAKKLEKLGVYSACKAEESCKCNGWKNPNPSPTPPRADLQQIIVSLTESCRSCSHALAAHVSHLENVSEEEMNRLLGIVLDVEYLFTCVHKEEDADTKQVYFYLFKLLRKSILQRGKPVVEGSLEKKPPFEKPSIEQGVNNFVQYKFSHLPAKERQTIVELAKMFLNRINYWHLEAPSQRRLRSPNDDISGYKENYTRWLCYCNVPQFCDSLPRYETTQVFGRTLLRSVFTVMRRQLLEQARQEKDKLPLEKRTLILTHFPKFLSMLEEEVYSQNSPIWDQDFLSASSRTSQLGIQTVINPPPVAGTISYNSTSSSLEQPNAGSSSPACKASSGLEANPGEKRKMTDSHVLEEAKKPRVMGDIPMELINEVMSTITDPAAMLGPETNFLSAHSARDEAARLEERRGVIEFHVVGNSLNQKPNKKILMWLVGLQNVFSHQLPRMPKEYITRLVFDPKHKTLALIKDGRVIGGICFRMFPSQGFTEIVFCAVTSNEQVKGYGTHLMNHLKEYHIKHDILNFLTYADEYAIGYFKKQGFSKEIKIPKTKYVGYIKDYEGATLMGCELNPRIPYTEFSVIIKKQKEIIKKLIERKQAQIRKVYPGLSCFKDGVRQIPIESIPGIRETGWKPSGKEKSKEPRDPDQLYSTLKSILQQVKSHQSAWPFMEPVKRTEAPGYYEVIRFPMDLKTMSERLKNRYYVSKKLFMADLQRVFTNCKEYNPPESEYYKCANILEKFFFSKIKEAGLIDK
Protocol: as §1

GCN5 = molecular target: T4, GCN5 (Homo sapiens, UniProt Q92830); test: as above; format: biochemical; details: 10-point dose curve from 100 μM
T4 construct: Creative Biomart (assay service)
Protocol: as §1

p300 = molecular target: T5, p300 (Homo sapiens, UniProt Q09472); test: as above; format: biochemical; details: 10-point dose curve from 100 μM
T5 construct: Creative Biomart (assay service)
T5 sequence (Q09472 whole entry): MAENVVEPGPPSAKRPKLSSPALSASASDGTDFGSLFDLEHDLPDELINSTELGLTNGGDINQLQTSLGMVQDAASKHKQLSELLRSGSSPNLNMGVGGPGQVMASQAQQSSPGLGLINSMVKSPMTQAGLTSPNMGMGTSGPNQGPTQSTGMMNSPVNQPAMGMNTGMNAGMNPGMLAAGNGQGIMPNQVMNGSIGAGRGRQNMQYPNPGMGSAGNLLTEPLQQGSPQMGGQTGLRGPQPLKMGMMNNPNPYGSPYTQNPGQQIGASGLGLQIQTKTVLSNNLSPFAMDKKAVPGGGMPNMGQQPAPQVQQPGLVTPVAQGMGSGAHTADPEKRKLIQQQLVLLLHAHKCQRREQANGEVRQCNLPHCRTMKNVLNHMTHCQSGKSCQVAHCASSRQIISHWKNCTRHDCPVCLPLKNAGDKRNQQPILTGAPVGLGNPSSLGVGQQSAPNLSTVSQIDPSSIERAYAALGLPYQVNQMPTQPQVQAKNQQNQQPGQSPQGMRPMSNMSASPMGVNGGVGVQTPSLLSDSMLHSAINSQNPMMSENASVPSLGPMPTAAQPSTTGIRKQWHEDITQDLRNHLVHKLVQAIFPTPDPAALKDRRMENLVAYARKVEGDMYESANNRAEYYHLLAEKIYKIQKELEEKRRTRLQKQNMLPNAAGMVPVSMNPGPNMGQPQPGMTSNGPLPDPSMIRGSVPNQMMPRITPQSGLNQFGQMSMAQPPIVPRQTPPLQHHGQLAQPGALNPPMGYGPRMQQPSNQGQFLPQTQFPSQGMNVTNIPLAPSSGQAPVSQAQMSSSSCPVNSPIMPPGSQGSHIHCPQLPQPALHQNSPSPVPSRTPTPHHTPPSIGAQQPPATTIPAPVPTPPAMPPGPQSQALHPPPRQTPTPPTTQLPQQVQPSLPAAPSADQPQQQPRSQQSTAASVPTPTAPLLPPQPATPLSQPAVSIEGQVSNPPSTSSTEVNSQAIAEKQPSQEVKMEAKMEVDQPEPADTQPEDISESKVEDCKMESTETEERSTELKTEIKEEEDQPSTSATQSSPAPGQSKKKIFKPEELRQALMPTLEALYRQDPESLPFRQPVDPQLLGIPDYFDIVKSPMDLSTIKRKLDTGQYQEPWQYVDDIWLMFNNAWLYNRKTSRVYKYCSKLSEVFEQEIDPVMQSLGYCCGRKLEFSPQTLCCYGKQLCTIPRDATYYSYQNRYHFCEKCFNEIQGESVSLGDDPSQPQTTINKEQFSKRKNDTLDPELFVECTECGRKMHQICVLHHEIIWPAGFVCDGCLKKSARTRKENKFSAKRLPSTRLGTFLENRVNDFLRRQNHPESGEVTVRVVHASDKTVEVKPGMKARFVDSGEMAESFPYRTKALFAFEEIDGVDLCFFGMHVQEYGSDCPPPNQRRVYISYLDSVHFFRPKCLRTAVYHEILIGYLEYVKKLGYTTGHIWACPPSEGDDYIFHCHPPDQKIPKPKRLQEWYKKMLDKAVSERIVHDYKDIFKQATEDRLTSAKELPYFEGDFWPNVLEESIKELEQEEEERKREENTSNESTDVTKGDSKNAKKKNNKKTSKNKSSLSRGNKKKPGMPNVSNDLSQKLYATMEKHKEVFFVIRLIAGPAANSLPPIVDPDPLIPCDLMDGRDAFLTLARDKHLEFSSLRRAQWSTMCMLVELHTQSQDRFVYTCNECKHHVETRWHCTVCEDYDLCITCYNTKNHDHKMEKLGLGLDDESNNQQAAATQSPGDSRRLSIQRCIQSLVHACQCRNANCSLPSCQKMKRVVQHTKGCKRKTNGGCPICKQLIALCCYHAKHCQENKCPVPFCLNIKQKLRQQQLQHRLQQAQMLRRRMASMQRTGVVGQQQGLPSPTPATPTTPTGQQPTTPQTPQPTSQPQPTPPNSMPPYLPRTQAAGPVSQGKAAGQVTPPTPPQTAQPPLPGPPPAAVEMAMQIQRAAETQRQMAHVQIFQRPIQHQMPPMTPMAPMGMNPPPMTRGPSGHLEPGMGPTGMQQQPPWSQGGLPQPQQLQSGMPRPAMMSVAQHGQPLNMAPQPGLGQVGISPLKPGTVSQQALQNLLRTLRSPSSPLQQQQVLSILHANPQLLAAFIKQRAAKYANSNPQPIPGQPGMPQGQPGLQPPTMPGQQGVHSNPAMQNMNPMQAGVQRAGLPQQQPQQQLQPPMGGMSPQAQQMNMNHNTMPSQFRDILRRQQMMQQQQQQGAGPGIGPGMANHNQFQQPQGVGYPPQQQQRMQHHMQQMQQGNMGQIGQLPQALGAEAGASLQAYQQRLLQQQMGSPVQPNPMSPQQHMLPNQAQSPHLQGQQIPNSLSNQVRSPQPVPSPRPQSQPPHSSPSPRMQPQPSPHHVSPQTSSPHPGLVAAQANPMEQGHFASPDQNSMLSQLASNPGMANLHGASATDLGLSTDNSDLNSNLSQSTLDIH
Protocol: as §1

KAT5 = molecular target: T6, KAT5 (Homo sapiens, UniProt Q92993); test: as above; format: biochemical; details: 10-point dose curve from 100 μM
T6 construct: Creative Biomart (assay service)
T6 sequence (Q92993 whole entry): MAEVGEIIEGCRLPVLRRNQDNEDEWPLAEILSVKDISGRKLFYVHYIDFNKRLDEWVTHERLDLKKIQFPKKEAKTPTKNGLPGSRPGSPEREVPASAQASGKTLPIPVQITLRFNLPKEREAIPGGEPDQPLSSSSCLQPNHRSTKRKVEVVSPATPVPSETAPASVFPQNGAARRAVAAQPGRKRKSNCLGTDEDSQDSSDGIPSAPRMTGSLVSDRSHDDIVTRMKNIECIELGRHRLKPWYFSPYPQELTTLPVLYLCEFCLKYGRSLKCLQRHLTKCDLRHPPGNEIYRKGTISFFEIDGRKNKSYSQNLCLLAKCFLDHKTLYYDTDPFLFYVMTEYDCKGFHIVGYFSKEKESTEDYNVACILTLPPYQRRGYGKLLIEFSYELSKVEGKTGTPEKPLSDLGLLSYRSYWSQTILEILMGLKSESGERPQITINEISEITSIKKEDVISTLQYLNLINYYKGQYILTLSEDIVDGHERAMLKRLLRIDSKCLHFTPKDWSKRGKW
Protocol: as §1

MYST4/KAT6b = molecular target: T7, MYST4/KAT6b (Homo sapiens, UniProt Q8WYB5); test: as above; format: biochemical; details: 10-point dose curve from 100 μM
T7 construct: Creative Biomart (assay service)
Protocol: as §1

A549 cell line = test: Cell growth inhibition (CellTiter-Blue / resazurin); format: cell-based; details: Homo sapiens
Protocol: (§2) hTert-HME1, HCC1806, HCC1937, A549 were maintained in a humified incubator at 37deg C. with 5% CO2. HCC1806 and HCC1937 were grown in RPMI with 10% FBS and 1% penicillin-streptomycin. A549 was grown in F-12 media with 10% FBS and 1% penicillin-streptomycin. hTert-HME1 was grown in Mammary Epithelial Growth Media (PromoCell). Drug treatments were performed in 96-well plates. Cells were seeded at 5000 cells per well, then allowed to attach overnight. Drug dilutions were made in 96-well plates then transferred to plate containing cells and incubated for 48-72 hours. Cell density was then determined by CellTiter-Blue (Promega). For capillary immunoassays hTert-HME1 5E5 cells were seeded in 10 cm plates and cultured for 48 hours, then cells were washed 2× in PBS and EGF-free MEGM was added overnight. The next day, cells were treated in EGF-free media with 1% dialyzed BSA+drug for 30 minutes, then EGF was added to the plate and cells were cultured for 8, 10 and 12 hours before harvesting. Microcapillary immunoassays were performed on a SimpleWestern Wes instrument using H4K12-Ac antibody (Abcam ab46983) at 1:25 dilution, H4K5-Ac antibody (Millipore 07-327) at 1:50 dilution, HAT1 (Abcam ab194296) at 1:50 dilution, nascent H4 (Abcam ab7311) at 1:10 dilution, nascent H3 (Abcam ab18521) at 1:50 dilution, actin (Thermo-Fisher MA5-15452) at 1:100 dilution.

HCC1937 cell line = test: as above; format: cell-based; details: Homo sapiens
Protocol: as §2

[2] = mouse, in vivo, ip
A549 tumors = test: A549 tumor growth in NSG mice
Protocol: P-value calculated by least squares regression and extra sum-of-squares F-test. N=5 mice per group.
A549 cells were infected with 3 lentiviral shRNAs targeting the human HAT1 mRNA (Origene #TL312517). Six-to-eight-week-old NSG female mice (Jackson Labs #005557) were shaved, then 500,000 A549 tumor cells were injected into bilateral flanks and tumor growth was assessed by tri-dimensional tumor measurements to yield tumor volumes. For drug treatments, analog 2016 was resuspended in a 1:1 mixture of PEG-400 and PBS+1% dialyzed BSA-0.2 μm-filtered (MilliporeSigma #12-660-910GM). Intraperitoneal injections (200 μL) were performed with a 21-G needle. Tumor measurements were performed with digital calipers.

HCC1806 cell line = test: Cell growth inhibition (CellTiter-Blue / resazurin); format: cell-based, human
Protocol: as §2

[3] = Fluorescence imaging of harvested organs (compound distribution); format: in vivo, mice; details: 24 hours
Text: Organs were harvested and excited with UV light (230 nm) and imaged with a yellow-green filter.

[4] = tested on: H4 lysine 5 and 12 acetylation; test: Capillary immunoassay of H4 acetylation in hTert-HME1 cells; format: cell-based, human
Protocol: At some timepoints, decreased H4 protein levels were also observed, consistent with prior studies of the effects of HAT1 depletion (J. J. Gruber, et al., Mol Cell 75:711-724 e5, 2019, cited supra).
as §2, with “Microcapillary immunoassays were performed on a SimpleWestern Wes instrument using H4K12-Ac antibody (Abcam ab46983) at 1:25 dilution, H4K5-Ac antibody (Millipore 07-327) at 1:50 dilution, HAT1 (Abcam ab194296) at 1:50 dilution, nascent H4 (Abcam ab7311) at 1:10 dilution, nascent H3 (Abcam ab18521) at 1:50 dilution, actin (Thermo-Fisher MA5-15452) at 1:100 dilution.” left out

[5] = molecular target: T8, bacterially-expressed recombinant HAT1 (Homo sapiens, UniProt O14929); details: Ngo, Brown, Zheng 2019; read-out: Ki towards recombinant HAT1; cited from earlier work
T8 sequence (O14929 1-419): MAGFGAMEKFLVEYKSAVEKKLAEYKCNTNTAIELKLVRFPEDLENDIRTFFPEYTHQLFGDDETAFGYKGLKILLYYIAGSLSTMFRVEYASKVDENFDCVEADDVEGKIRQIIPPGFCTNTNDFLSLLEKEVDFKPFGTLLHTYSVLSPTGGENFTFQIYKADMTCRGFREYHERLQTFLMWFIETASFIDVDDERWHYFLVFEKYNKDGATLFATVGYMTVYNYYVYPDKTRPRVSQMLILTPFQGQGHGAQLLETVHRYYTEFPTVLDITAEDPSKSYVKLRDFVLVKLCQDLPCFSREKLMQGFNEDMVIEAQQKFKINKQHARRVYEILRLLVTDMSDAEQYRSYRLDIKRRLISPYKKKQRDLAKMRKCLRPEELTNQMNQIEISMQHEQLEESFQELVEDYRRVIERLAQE

Compound: Cc1cc2nc3c(=O)[nH]c(=O)nc-3n(C[C@H](O)[C@H](O)[C@H](O)COP(=O)(O)OP(=O)(O)OC[C@H]3O[C@@H](n4cnc5c(N)ncnc54)[C@H](O)[C@@H]3O)c2cc1C [FAD, flavin-adenine-dinucleotide]
HAT1 inhibitory activity of flavonoids in dose-response [1]: no detectable inhibitory activity

Compound: Cc1cc2nc3c(=O)[nH]c(=O)nc-3n(C[C@H](O)[C@H](O)[C@H](O)COP(=O)(O)O)c2cc1C [FMN, flavin-mononucleotide]
HAT1 inhibitory activity of flavonoids in dose-response [1]: no detectable inhibitory activity

Compound: CCc1cc2c(cc1Cl)nc1c(=O)[nH]c(=O)nc-1n2CCOCC(C)C [JG-2016, 7-chloro-8-ethyl-10-(2-isobutoxyethyl)benzo[g]pteridine-2,4(3H, 10H)-dione]
IC50 (CBP): 90.4 µM | IC50 (MYST2/KAT7): 84.8 µM | inhibitory activity towards PCAF (PCAF): minimal or undetectable inhibitory activity | inhibitory activity towards GCN5 (GCN5): minimal or undetectable inhibitory activity | IC50 (p300): 74.2 µM | inhibitory activity towards KAT5 (KAT5): minimal or undetectable inhibitory activity | inhibitory activity towards MYST4/KAT6b (MYST4/KAT6b): minimal or undetectable inhibitory activity | EC50 (A549 cell line): 1.9 µM | IC50 (A549 cell line; read-out: IC50 required to impair cell proliferation): 1.9 µM | EC50 (HCC1937 cell line): 29.8 µM | tolerated single intraperitoneal dose with minimal toxicity [2]: up to 250 mg/kg | toxicity signs ([2]; 500 mg/kg): signs of distress | tumor growth versus vehicle (A549 tumors; 50 mg/kg and 100 mg/kg i.p. once every three days from day 13): significantly impaired tumor growth | dose-response of tumor growth suppression (A549 tumors; higher dose (100 mg/kg) compared to lower dose (50 mg/kg)): more profound suppression of tumor growth | cell growth inhibition (HCC1806 cell line): among the most potent inhibitors of cell growth | EC50 (HCC1806 cell line; Homo sapiens): 10.4 µM | tissue accumulation by fluorescence imaging ([3]; healthy mice, 500 mg/kg i.p.): high accumulation adipose tissue | tissue accumulation by fluorescence imaging ([3]; mice bearing bilateral A549 tumors, 100 mg/kg once): compound accumulation in subcutaneous adipose tissues (SAT), visceral adipose tissue (VAT), and tumors | time course of H4 acetylation inhibition ([4]; hTert-HME1, EGF stimulation 8, 10, 12 hours): on-target inhibition as early as 8 hours post-treatment that persisted through 12 hours | inhibition of H4 lysine 5 and 12 acetylation ([4]; hTert-HME1, dose series): dose-dependent inhibition

Compound: CCc1cc2c(cc1Cl)nc1c(=O)[nH]c(=O)nc-1n2CCOCc1cccc(F)c1 [JG-2069]
HAT1 inhibitory activity in library screens (rank, active or inactive) [1]: interfered with enzyme inhibition

Compound: CCc1cc2c(cc1Cl)nc1c(=O)[nH]c(=O)nc-1n2CCCOc1cccc(C#N)c1 [JG-2088]
HAT1 inhibitory activity in library screens (rank, active or inactive) [1]: interfered with enzyme inhibition

Compound: CCc1cc2c(cc1Cl)nc1c(=O)[nH]c(=O)nc-1n2CCOCc1ccc(C#N)cc1 [JG-2092]
HAT1 inhibitory activity in library screens (rank, active or inactive) [1]: interfered with enzyme inhibition

Compound: O=c1nc2n(C[C@H](O)[C@H](O)[C@H](O)CO)c3cc(Cl)c(Cl)cc3nc-2c(=O)[nH]1 [NSC-42186]
IC50 [1]: 60.5 µM and 38 µM | % inhibition of HAT1 activity ([1]; single dose 100 μM): 31%

Compound: NC(=S)c1cn(C2OC(CO)C(O)C2O)c2ncnc(N)c12 (stereo not drawn) [NSC-105827]
HAT1 inhibitory activity in library screens (rank, active or inactive) [1]: inhibitory activity

Compound: Cc1cc2nc3[nH]c(=O)[nH]c(=O)c3nc2cc1C [di-methyl-alloxazine]
HAT1 inhibitory activity of flavonoids in dose-response [1]: no detectable inhibitory activity

Compound: CC(C)(COP(=O)(O)OP(=O)(O)OC[C@H]1O[C@@H](n2cnc3c(N)ncnc32)[C@H](O)[C@@H]1OP(=O)(O)O)[C@@H](O)C(=O)NCCC(=O)NCCSC(=O)[C@@H](N)CCCCN [lysyl-CoA]
inhibition of HAT1/Rbap46 by bi-substrate inhibitors [1]: no inhibitory activity

Compound: CCCC(=O)OC[C@@H](OC(=O)CCC)[C@@H](OC(=O)CCC)[C@H](Cn1c2nc(=O)[nH]c(=O)c-2nc2cc(C)c(C)cc21)OC(=O)CCC [riboflavin tetrabutyrate]
IC50 [1]: 17 µM

Compound: Cc1cc2nc3c(=O)[nH]c(=O)nc-3n(C[C@H](O)[C@H](O)[C@H](O)CO)c2cc1N(C)C [roseoflavin, reference compound]
HAT1 inhibitory activity in library screens (rank, active or inactive) [1]: inactive | cell growth inhibition (HCC1806 cell line): strong cell growth inhibitory properties

Compound: H4K12-CoA: co-enzyme A chemically ligated to the ζ-amine of lysine 12 in the histone H4 N-terminal 20-mer peptide
inhibition of HAT1/Rbap46 by bi-substrate inhibitors [1]: robust inhibition | IC50 [1]: ~1 µM | cell growth inhibition (HCC1806 cell line): no inhibitory activity | Ki [5]: ~0.001 µM

Other lines, results leading:

HAT1 inhibitory activity in library screens (rank, active or inactive) [1]: top hit
Compound: CC(=O)OCCn1c2nc(=O)[nH]c(=O)c-2nc2cc(C)c(C)cc21 [NSC-3064]

HAT1 inhibitory activity in library screens (rank, active or inactive) [1]: inhibitory activity
Compound: COC1=C(N)C(=O)c2nc(-c3nc(C(=O)O)c(C)c(-c4ccc(OC)c(OC)c4O)c3N)ccc2C1=O [NSC-83950]

HAT1 inhibitory activity in library screens (rank, active or inactive) [1]: inhibitory activity
Compound: O=C(O)Cc1ccc(N=Nc2c(O)c(C(=O)O)cc3ccccc23)cc1 [NSC-156563]

HAT1 inhibitory activity in library screens (rank, active or inactive) [1]: fifth best hit
Compound: Cc1cc2cc3c(=O)[nH]c(=O)cc-3n(CC(O)C(O)C(O)CO)c2cc1C (stereo not drawn) [NSC-275266]

HAT1 inhibitory activity in library screens (rank, active or inactive) [1]: inhibitory activity
Compound: Oc1ccccc1-c1nc2c3ccccc3c3ccccc3c2[nH]1 [NSC-332670]
